In patent US10000516B2 (priority 2015, dated 2018):
pIC50: −log10 of the molar value. Read-outs that look alike come from different tables or passages of the source.

Target: T1, Human Factor D (Homo sapiens, UniProt P00746)
T1 construct: purified from human serum; purchased Complement Technology, Inc; host or cells: human serum (natural protein, not recombinant)
Test: Human Factor D assay (Z-L-Lys-SBzl/DTNB, absorbance at 405 nm)
Format: biochemical
Experimental: Example 44. Human Factor D Assay
Human Factor D (purified from human serum, Complement Technology, Inc.) at 80 nM final concentration was incubated with test compound at various concentrations for 5 minutes at room temperature in 50 mM Tris, 1M NaCl, pH 7.5. A synthetic substrate Z-L-Lys-SBzl and DTNB (Ellman's reagent) are added to final concentrations of 100 µM each. Absorbance at 405 nm (A405) was recorded at 30 second intervals for 30 minutes using a microplate spectrophotometer. IC50 values are calculated by nonlinear regression of complement Factor D reaction rates as a function of test compound concentration.

[1] = Table 1, Human Factor D 80 nM, purified from human serum, substrate Z-L-Lys-SBzl, read-out: IC50

T1 sequence (P00746 26-253): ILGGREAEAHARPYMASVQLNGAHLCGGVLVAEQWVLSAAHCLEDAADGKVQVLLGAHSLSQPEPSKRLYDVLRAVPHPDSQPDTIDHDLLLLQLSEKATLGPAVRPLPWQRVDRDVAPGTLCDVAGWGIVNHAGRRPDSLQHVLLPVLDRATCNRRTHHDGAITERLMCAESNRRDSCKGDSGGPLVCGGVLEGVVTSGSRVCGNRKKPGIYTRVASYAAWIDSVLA

CCOP(=O)(OCC)c1ccc2c(C(C)=O)cn(CC(=O)N3C[C@H](F)C[C@H]3C(=O)NCc3cccc(Cl)c3F)c2c1 [Compound 1, diethyl 3-acetyl-1-(2-((2S,4R)-2-(3-chloro-2-fluorobenzylcarbamoyl)-4-fluoropyrrolidin-1-yl)-2-oxoethyl)-1H-indol-6-ylphosphonate]
pIC50 [1]: > 6.00

CCOP(=O)(O)c1ccc2c(C(C)=O)cn(CC(=O)N3C[C@H](F)C[C@H]3C(=O)NCc3cccc(Cl)c3F)c2c1 [Compound 2, ethyl hydrogen 3-acetyl-1-(2-((2S,4R)-2-(3-chloro-2-fluorobenzylcarbamoyl)-4-fluoropyrrolidin-1-yl)-2-oxoethyl)-1H-indol-6-ylphosphonate]
pIC50 [1]: > 6.00

CC(=O)c1cn(CC(=O)N2C[C@H](F)C[C@H]2C(=O)NCc2cccc(Cl)c2F)c2cc(P(=O)(O)O)ccc12 [Compound 3, 3-acctyl-1-(2-((2S,4R)-2-(3-chloro-2-fluorobenzylcarbamoyl)-4-fluoropyrrolidin-1-yl)-2-oxoethyl)-1H-indol-6-ylphosphonic acid]
pIC50 [1]: > 6.00

CC(=O)c1cn(CC(=O)N2C[C@H](F)C[C@H]2C(=O)NCc2cccc(Cl)c2F)c2cc(P(=O)(OCOC(=O)OC(C)C)OCOC(=O)OC(C)C)ccc12 [Compound 4, ((3-acetyl-1-(2-((2S,4R)-2-(3-chloro-2-fluorobenzylcarbamoyl)-4-fluoropyrrolidin-1-yl)-2-oxoethyl)-1H-indol-6-yl)phosphoryl)bis(oxy) bis(methylene) isopropyl dicarbonate]
pIC50 [1]: > 6.00

CCOP(=O)(OCOC(=O)OC(C)C)c1ccc2c(C(C)=O)cn(CC(=O)N3C[C@H](F)C[C@H]3C(=O)NCc3cccc(Cl)c3F)c2c1 (stereo partly drawn) [Compound 6, ((3-acetyl-1-(2-((2S,4R)-2-(3-chloro-2-fluorobenzylcarbamoyl)-4-fluoropyrrolidin-1-yl)-2-oxoethyl)-1H-indol-6-yl)(ethoxy)phosphoryloxy) methyl isopropyl carbonate]
pIC50 [1]: > 6.00

CC(=O)c1cn(CC(=O)N2[C@@H]3CCC[C@@H]3C[C@H]2C(=O)NCc2cccc(Cl)c2F)c2cc(P(=O)(O)O)ccc12 [Compound 7, 3-acetyl-1-(2-((2S,3aR,6aR)-2-(3-chloro-2-fluorobenzylcarbamoyl)hexahydrocyclopenta [b]pyrrol-1(2H)-yl)-2-oxoethyl)-1H-indol-6-ylphosphonic acid]
pIC50: > 6.00

CCOP(=O)(OCC)c1ccc2c(c1)c(C(C)=O)cn2CC(=O)N1C[C@H](F)C[C@H]1C(=O)NCc1cccc(Cl)c1F [Compound 8, diethyl 3-acetyl-1-(2-((2S,4R)-2-(3-chloro-2-fluorobenzylcarbamoyl)-4-fluoropyrrolidin-1-yl)-2-oxoethyl)-1H-indol-5-ylphosphonate]
pIC50 [1]: > 6.00

CCOP(=O)(O)c1ccc2c(c1)c(C(C)=O)cn2CC(=O)N1C[C@H](F)C[C@H]1C(=O)NCc1cccc(Cl)c1F [Compound 9, ethyl hydrogen 3-acetyl-1-(2-((2S,4R)-2-(3-chloro-2-fluorobenzylcarbamoyl)-4-fluoropyrrolidin-1-yl)-2-oxoethyl)-1H-indol-5-ylphosphonate]
pIC50 [1]: < 5.00

CC(=O)c1cn(CC(=O)N2C[C@H](F)C[C@H]2C(=O)NCc2cccc(Cl)c2F)c2ccc(P(=O)(O)O)cc12 [Compound 10, 3-acetyl-1-(2-((2S,4R)-2-(3-chloro-2-fluorobenzylcarbamoyl)-4-fluoropyrrolidin-1-yl)-2-oxoethyl)-1H-indol-5-ylphosphonic acid]
pIC50 [1]: > 6.00

CCOC(=O)c1nn(CC(=O)N2C[C@H](F)C[C@H]2C(=O)NCc2cccc(Cl)c2F)c2cc(P(=O)(OCC)OCC)ccc12 [Compound 11, ethyl 1-(2-((2S,4R)-2-(3-chloro-2-fluorobenzylcarbamoyl)-4-fluoropyrrolidin-1-yl)-2-oxoethyl)-6-(diethoxyphosphoryl)-1H-indazole-3-carboxylate]
pIC50 [1]: < 5.00

CCOP(=O)(OCC)c1ccc2c(C(=O)O)nn(CC(=O)N3C[C@H](F)C[C@H]3C(=O)NCc3cccc(Cl)c3F)c2c1 [Compound 12, 1-(2-((2S,4R)-2-(3-chloro-2-fluorobenzylcarbamoyl)-4-fluoropyrrolidin-1-yl)-2-oxoethyl)-6-(diethoxyphosphoryl)-1H-indazole-3-carboxylic acid]
pIC50 [1]: < 5.00

CCOP(=O)(OCC)c1ccc2c(C(=O)OC)cn(CC(=O)N3C[C@H](F)C[C@H]3C(=O)NCc3cccc(Cl)c3F)c2c1 [Compound 13, methyl 1-(2-((2S,4R)-2-(3-chloro-2-fluorobenzylcarbamoyl)-4-fluoropyrrolidin-1-yl)-2-oxoethyl)-6-(diethoxyphosphoryl)-1H-indole-3-carboxylate]
pIC50 [1]: > 6.00

COC(=O)c1cn(CC(=O)N2C[C@H](F)C[C@H]2C(=O)NCc2cccc(Cl)c2F)c2cc(P(=O)(O)O)ccc12 [Compound 14, 1-(2-((2S,4R)-2-(3-chloro-2-fluorobenzylcarbamoyl)-4-fluoropyrrolidin-1-yl)-2-oxoethyl)-3-(methoxycarbonyl)-1H-indol-6-ylphosphonic acid]
pIC50 [1]: > 6.00

CCOP(=O)(OCC)c1ccc2c(C(N)=O)cn(CC(=O)N3C[C@H](F)C[C@H]3C(=O)NCc3cccc(Cl)c3F)c2c1 [Compound 15, diethyl 3-carbamoyl-1-(2-((2S,4R)-2-(3-chloro-2-fluorobenzylcarbamoyl)-4-fluoropyrrolidin-1-yl)-2-oxoethyl)-1H-indol-6-ylphosphonate]
pIC50 [1]: > 6.00

NC(=O)c1cn(CC(=O)N2C[C@H](F)C[C@H]2C(=O)NCc2cccc(Cl)c2F)c2cc(P(=O)(O)O)ccc12 [Compound 16, 3-carbamoyl-1-(2-((2S,4R)-2-(3-chloro-2-fluorobenzylcarbamoyl)-4-fluoropyrrolidin-1-yl)-2-oxoethyl)-1H-indol-6-ylphosphonic acid]
pIC50 [1]: > 6.00

CCOP(=O)(OCC)c1ccc2c(C(N)=O)nn(CC(=O)N3C[C@H](F)C[C@H]3C(=O)NCc3cccc(Cl)c3F)c2c1 [Compound 17, diethyl 3-carbamoyl-1-(2-((2S,4R)-2-(3-chloro-2-fluorobenzylcarbamoyl)-4-fluoropyrrolidin-1-yl)-2-oxoethyl)-1H-indazol-6-ylphosphonate]
pIC50 [1]: > 6.00

NC(=O)c1nn(CC(=O)N2C[C@H](F)C[C@H]2C(=O)NCc2cccc(Cl)c2F)c2cc(P(=O)(O)O)ccc12 [Compound 18, 3-carbamoyl-1-(2-((2S,4R)-2-(3-chloro-2-fluorobenzylcarbamoyl)-4-fluoropyrrolidin-1-yl)-2-oxoethyl)-1H-indazol-6-ylphosphonic acid]
pIC50 [1]: > 6.00

CC(=O)c1cn(CC(=O)N2C[C@H](F)C[C@H]2C(=O)NCc2cccc(Cl)c2F)c2cc(P(=O)(OCC(F)(F)F)OCC(F)(F)F)ccc12 [Compound 19, bis(2,2,2-trifluoroethyl) 3-acetyl-1-(2-((2S,4R)-2-(3-chloro-2-fluorobenzylcarbamoyl)-4-fluoropyrrolidin-1-yl)-2-oxoethyl)-1H-indol-6-ylphosphonate]
pIC50 [1]: > 6.00

CCCCOP(=O)(OCCCC)c1ccc2c(C(C)=O)cn(CC(=O)N3C[C@H](F)C[C@H]3C(=O)NCc3cccc(Cl)c3F)c2c1 [Compound 20, dibutyl 3-acetyl-1-(2-((2S,4R)-2-(3-chloro-2-fluorobenzylcarbamoyl)-4-fluoropyrrolidin-1-yl)-2-oxoethyl)-1H-indol-6-ylphosphonate]
pIC50: > 6.00

CCCCOP(=O)(O)c1ccc2c(C(C)=O)cn(CC(=O)N3C[C@H](F)C[C@H]3C(=O)NCc3cccc(Cl)c3F)c2c1 [Compound 21, butyl hydrogen 3-acetyl-1-(2-((2S,4R)-2-(3-chloro-2-fluorobenzylcarbamoyl)-4-fluoropyrrolidin-1-yl)-2-oxoethyl)-1H-indol-6-ylphosphonate]
pIC50 [1]: > 6.00

CC(=O)c1cn(CC(=O)N2C[C@H](F)C[C@H]2C(=O)NCc2cccc(Cl)c2F)c2cc(P(=O)(O)OCOC(=O)OC(C)C)ccc12 [Compound 22, ((3-acetyl-1-(2-((2S,4R)-2-(3-chloro-2-fluorobenzylcarbamoyl)-4-fluoropyrrolidin-1-yl)-2-oxoethyl)-1H-indol-6-yl)(hydroxy)phosphoryloxy) methyl isopropyl carbonate]
pIC50 [1]: > 6.00

CCOP(=O)(c1ccccc1)c1ccc2c(C(C)=O)cn(CC(=O)N3C[C@H](F)C[C@H]3C(=O)NCc3cccc(Cl)c3F)c2c1 (stereo partly drawn) [Compound 23, ethyl 3-acetyl-1-(2-((2S,4R)-2-(3-chloro-2-fluorobenzylcarbamoyl)-4-fluoropyrrolidin-1-yl)-2-oxoethyl)-1H-indol-6-yl(phenyl)phosphinate]
pIC50 [1]: > 6.00

CCOP(=O)(CC)c1ccc2c(C(C)=O)cn(CC(=O)N3C[C@H](F)C[C@H]3C(=O)NCc3cccc(Cl)c3F)c2c1 (stereo partly drawn) [Compound 24, ethyl 3-acetyl-1-(2-((2S,4R)-2-(3-chloro-2-fluorobenzylcarbamoyl)-4-fluoropyrrolidin-1-yl)-2-oxoethyl)-1H-indol-6-yl(ethyl)phosphinate]
pIC50 [1]: > 6.00

CC(=O)c1cn(CC(=O)N2C[C@H](F)C[C@H]2C(=O)NCc2cccc(Cl)c2F)c2cc(P(=O)(O)c3ccccc3)ccc12 [Compound 25, 3-acetyl-1-(2-((2S,4R)-2-(3-chloro-2-fluorobenzylcarbamoyl)-4-fluoropyrrolidin-1-yl)-2-oxoethyl)-1H-indol-6-yl(phenyl)phosphinic acid]
pIC50 [1]: > 6.00

CC(=O)c1cn(CC(=O)N2C[C@H](F)C[C@H]2C(=O)NCc2cccc(Cl)c2F)c2cc(P(=O)(OCOC(=O)C(C)(C)C)OCOC(=O)C(C)(C)C)ccc12 [Compound 26, ((3-acetyl-1-(2-((2S,4R)-2-(3-chloro-2-fluorobenzylcarbamoyl)-4-fluoropyrrolidin-1-yl)-2-oxoethyl)-1H-indol-6-yl)phosphoryl)bis(oxy)bis (methylene) bis(2,2-dimethylpropanoate)]
pIC50 [1]: > 6.00
